Earlier results, collected in patent US20240122955A1, “ORAL DELIVERY” (GUANGZHOU DAZHOU BIOMEDICINE LTD., priority 2021, published 2024).

Key:
SGLT2 = biological target: T1, SGLT2 (Homo sapiens, UniProt P31639); conditions: among the three FDA approved drugs canagliflozin, dapagliflozin, empagliflozin
T1 sequence (P31639 1-672): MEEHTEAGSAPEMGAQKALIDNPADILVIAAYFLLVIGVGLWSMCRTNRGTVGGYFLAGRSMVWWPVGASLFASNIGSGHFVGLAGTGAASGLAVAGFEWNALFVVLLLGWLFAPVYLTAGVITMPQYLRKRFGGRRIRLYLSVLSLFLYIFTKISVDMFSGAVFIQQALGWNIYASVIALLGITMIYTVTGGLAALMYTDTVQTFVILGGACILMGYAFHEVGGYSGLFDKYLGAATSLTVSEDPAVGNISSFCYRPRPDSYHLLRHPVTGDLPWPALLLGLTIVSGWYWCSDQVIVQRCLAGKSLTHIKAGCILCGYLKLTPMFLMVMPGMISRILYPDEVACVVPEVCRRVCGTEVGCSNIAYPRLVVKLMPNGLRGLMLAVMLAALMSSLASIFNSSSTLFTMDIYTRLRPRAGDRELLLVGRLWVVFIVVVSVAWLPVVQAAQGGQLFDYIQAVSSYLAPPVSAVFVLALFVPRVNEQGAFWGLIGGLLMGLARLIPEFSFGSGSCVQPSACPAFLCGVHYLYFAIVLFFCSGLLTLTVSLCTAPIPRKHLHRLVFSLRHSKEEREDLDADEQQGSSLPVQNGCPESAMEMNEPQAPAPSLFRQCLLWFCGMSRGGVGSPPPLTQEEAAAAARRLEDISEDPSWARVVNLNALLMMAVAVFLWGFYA

[1] = T2D patients with high risk of cardiovascular disease events, versus the placebo group

Row | Structure (SMILES) | selectivity for SGLT2 compared to SGLT1 (SGLT2) | relative risk reduction in death from cardiovascular causes [1] [%]
1 | OCC1O[C@@H](c2ccc(Cl)c(Cc3ccc(O[C@@H]4CCOC4)cc3)c2)C(O)C(O)[C@@H]1O (stereo partly drawn) [empagliflozin] | greatest selectivity | 38
2 | Cc1ccc([C@@H]2O[C@H](CO)[C@@H](O)[C@H](O)[C@H]2O)cc1Cc1ccc(-c2ccc(F)cc2)s1 [canagliflozin] | least selective | –
